Patent publication US6429208B1, “Methods and compositions for restoring impaired cellular immune function” (Regents of the University of California, priority 1992, dated 2002)

Tested on: Raji cells
Assay: Cytotoxic T-cell 51Cr-release assay against Raji cells
Type: cell-based, human
Procedure: Cytotoxic T-cells from HIV seropositive subjects “regained” their normal ability to lyse allogenic tumor cell line in the presence of ddAdo as shown in FIG. 10B. In this experiment, ddAdo was added either during the six days of generation/priming (middle column of FIG. 10B) or during the three hour cytotoxic assay (right column of FIG. 10B). The cytotoxic assay used was a standard assay. Briefly, 10^6 PBMC were primed and irradiated (3000 Rad) Raji B-lymphoblastoid cells (8:1 ratio) for six days and added to triplicates of ^51Cr-labeled target Raji cells in effector target ratios from 6.25 to 50. ^51Cr released to the supernatant was measured in a gamma counter. Percentage of specific ^51Cr-release was calculated as 100×(released by PBMC−spontaneous release)/(maximum release with Triton X−spontaneous release). ddAdo was added in concentrations of 10 or 100 ng/ml either during priming or lysis.

## C[C@H]1O[C@@H](n2cnc3c(N)ncnc32)C[C@@H]1O [ddAdo, 2′,5′ dideoxyadenosine]
10 or 100 ng/ml during priming or lysis, FIG. 10B
  Ability of cytotoxic T-cells from HIV seropositive subjects to lyse allogenic tumor cell line: regained
HIV seronegative subjects
  Effect on target lysis by HIV seronegative cells: minimal effect
Ratio 1:12, ddAdo during priming, without 48% (±12)
  Target lysis (specific ^51Cr-release): 76%
Ratio 1:25, without 61% (±15)
  Target lysis (specific ^51Cr-release): 77%
